# Experimental data reported in patent US10238655B2, “Dihydroindene and tetrahydronaphthalene compounds” (ARIZONA BOARD OF REGENTS ON BEHALF OF ARIZONA STATE …, priority 2017, dated 2019).
# Test system: not given
# Settings: not given
row,Structure (SMILES),melting point [°C]
1,"CCN(c1ccc2c(c1)C(C)(C)CCC2(C)C)c1ccc(C(=O)O)cn1 [Example 1, 6-(ethyl(5,5,8,8-tetramethyl-5,6,7,8-tetrahydronaphthalen-2-yl)amino)nicotinic acid]",230 to 232
2,"CCN(c1ccc(C(=O)O)cc1)c1ccc2c(c1)C(C)(C)CCC2(C)C [Example 2, 4-(Ethyl(5,5,8,8-tetramethyl-5,6,7,8-tetrahydronaphthalen-2-yl)amino)benzoic acid]",247.8 to 250.6
3,"CCN(c1ccc(C(=O)O)cc1)c1cc2c(cc1C)C(C)(C)CCC2(C)C [Example 3, 4-(Ethyl(3,5,5,8,8-pentamethyl-5,6,7,8-tetrahydronaphthalen-2-yl)amino)benzoic acid]",252.4 to 256.8
4,"CCN(c1ncc(C(=O)O)cn1)c1cc2c(cc1C)C(C)(C)CCC2(C)C [Example 6, 2-(Ethyl(3,5,5,8,8-pentamethyl-5,6,7,8-tetrahydronaphthalen-2-yl)amino)pyrimidine-5-carboxylic acid]",231.9 to 233.1
5,"CCN(c1ccc2c(c1)C(C)(C)CCC2(C)C)c1cnc(C(=O)O)cn1 [Example 7, 5-(Ethyl(5,5,8,8-tetramethyl-5,6,7,8-tetrahydronaphthalen-2-yl)amino)pyrazine-2-carboxylic acid]",213.1 to 214.4
6,"CCN(c1cnc(C(=O)O)cn1)c1cc2c(cc1C)C(C)(C)CCC2(C)C [Example 8, 5-(Ethyl(3,5,5,8,8-pentamethyl-5,6,7,8-tetrahydronaphthalen-2-yl)amino)pyrazine-2-carboxylic acid]",203.6 to 205.1
7,"CCN(c1ccc(C(=O)O)c(F)c1)c1ccc2c(c1)C(C)(C)CCC2(C)C [Example 9, 4-(Ethyl(5,5,8,8-tetramethyl-5,6,7,8-tetrahydronaphthalen-2-yl)amino)-2-fluorobenzoic acid]",252.4 to 256.8
8,"CCN(c1ccc(C(=O)O)c(F)c1)c1cc2c(cc1C)C(C)(C)CCC2(C)C [Example 10, 4-(Ethyl(3,5,5,8,8-pentamethyl-5,6,7,8-tetrahydronaphthalen-2-yl)amino)-2-fluorobenzoic acid]",241.4 to 243.8

# Target: hRXRβ (Homo sapiens, UniProt P28702)
# Sequence (P28702 whole entry, canonical isoform): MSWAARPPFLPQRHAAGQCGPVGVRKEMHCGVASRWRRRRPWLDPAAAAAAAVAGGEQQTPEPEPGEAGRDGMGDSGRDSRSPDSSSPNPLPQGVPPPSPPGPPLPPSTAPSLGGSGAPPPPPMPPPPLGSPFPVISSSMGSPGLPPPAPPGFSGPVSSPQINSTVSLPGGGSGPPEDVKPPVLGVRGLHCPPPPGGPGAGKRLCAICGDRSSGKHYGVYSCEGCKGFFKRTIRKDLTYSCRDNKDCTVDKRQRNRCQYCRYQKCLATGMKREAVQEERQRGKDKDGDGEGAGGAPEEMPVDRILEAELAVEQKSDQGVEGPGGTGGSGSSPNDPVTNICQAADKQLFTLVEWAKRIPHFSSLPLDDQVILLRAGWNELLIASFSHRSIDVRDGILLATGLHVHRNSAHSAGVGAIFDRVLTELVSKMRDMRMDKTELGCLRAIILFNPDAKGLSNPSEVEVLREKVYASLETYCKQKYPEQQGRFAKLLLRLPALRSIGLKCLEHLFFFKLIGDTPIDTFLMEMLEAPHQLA
# Settings: read-out: EC50 for the hRXRβ isoform; cited from earlier work
row,Structure (SMILES),EC50 [nM]
1,Cc1cc2c(cc1-c1cc(/C=C/C(=O)O)ccc1O)C(C)(C)CCC2(C)C [CD3254],~10
